Columns and labels:
EP2 receptor = target: T1, EP2 receptor (Homo sapiens, UniProt P43116); assay: Radioligand binding, EP2 receptor; conditions: [3H]PGE2 competition, HEK-293 membranes
T1 construct: expressed in transfected cells; membrane fraction
Protocol: (§1) HEK-293 cells stably expressing the human or feline FP receptor, or EP1, EP2, or EP4 receptors are washed with TME buffer, scraped from the bottom of the flasks, and homogenized for 30 sec using a Brinkman PT 10/35 polytron. TME buffer is added to achieve a final 40 ml volume in the centrifuge tubes (the composition of TME is 100 mM TRIS base, 20 mM MgCl2, […]; 10N HCl is added to achieve a pH of 7.4).
(§2) The cell homogenate is centrifuged at 19000 r.p.m. for 20 min at 4° C. using a Beckman Ti-60 rotor. The resultant pellet is resuspended in TME buffer to give a final 1 mg/ml protein concentration, as determined by Biorad assay. Radioligand binding competition assays vs. [^3H—]17 phenyl PGF2α (5 nM) are performed in a 100 μl volume for 60 min. Binding reactions are started by adding plasma membrane fraction. The reaction is terminated by the addition of 4 ml ice-cold TRIS-HCl buffer and rapid filtration through glass fiber GF/B filters using a Brandel cell harvester. The filters are washed 3 times with ice-cold buffer and oven dried for one hour. Non-specific binding is determined with 10 uM unlabeled 17 phenyl PGF2α.
(§3) [^3H—] PGE2 (5 nM; specific activity 180 Ci mmol) is used as the radioligand for EP receptors. Binding studies employing EP1, EP2, EP3, EP4 are performed in duplicate in at least three separate experiments. A 200 μl assay volume is used. Incubations are for 60 min at 25° C. and are terminated by the addition of 4 ml of ice-cold 50 mM TRIS-HCl, followed by rapid filtration through Whatman GF/B filters and three additional 4 ml washes in a cell harvester (Brandel). Non-specific binding is determined with 10^−5M of unlabeled PGE2.

EP4 receptor = target: T2, EP4 receptor (Homo sapiens, UniProt P35408); assay: Radioligand binding, EP4 receptor; conditions: [3H]PGE2 competition, HEK-293 membranes
T2 construct: expressed in transfected cells; membrane fraction
T2 sequence (P35408 whole entry): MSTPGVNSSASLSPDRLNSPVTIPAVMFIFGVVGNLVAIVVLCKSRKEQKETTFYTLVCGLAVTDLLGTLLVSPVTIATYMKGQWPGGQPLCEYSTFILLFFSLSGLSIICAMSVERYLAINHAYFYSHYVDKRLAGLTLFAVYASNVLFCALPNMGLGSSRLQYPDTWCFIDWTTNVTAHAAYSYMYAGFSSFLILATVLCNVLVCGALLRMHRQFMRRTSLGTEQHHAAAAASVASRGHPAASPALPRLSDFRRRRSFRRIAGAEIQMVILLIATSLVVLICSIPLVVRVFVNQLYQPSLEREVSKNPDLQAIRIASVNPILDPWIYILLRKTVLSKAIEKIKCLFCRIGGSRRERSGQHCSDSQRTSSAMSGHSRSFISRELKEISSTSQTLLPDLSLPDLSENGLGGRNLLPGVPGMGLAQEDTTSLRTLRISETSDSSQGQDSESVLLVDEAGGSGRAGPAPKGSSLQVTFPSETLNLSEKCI
Protocol: as §1, §2, §3

hEP3A/Gqi5 = target: T3, hEP3A/Gqi5 (Homo sapiens, UniProt P43115); assay: FLIPR calcium signal, hEP3A/Gqi5; type: cell-based; conditions: HEK-293(EBNA) cells, read-out: OTHER RECEPTORS Ca2+ EC50: EP3
T3 construct: expressed in transfected cells
T3 sequence (P43115 1-390): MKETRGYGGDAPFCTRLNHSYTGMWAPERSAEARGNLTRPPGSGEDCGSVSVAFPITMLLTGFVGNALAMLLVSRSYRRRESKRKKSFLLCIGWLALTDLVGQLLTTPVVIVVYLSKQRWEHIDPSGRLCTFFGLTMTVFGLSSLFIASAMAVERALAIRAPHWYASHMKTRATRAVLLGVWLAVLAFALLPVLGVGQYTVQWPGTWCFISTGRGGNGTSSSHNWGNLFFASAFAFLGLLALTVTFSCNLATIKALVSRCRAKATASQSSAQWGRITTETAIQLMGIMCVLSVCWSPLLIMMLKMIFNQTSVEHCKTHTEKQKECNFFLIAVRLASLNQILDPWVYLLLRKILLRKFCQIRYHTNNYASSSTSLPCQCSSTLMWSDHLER
Protocol: (§4) HEK-293(EBNA) cells, stably expressing one type or subtype of recombinant human prostaglandin receptors (prostaglandin receptors expressed: hDP/Gqs5; hEP1; hEP2/Gqs5; hEP3A/Gqi5; hEP4/Gqs5; hFP; hIP; hTP), are cultured in 100 mm culture dishes in high-glucose DMEM medium containing 10% fetal bovine serum, 2 mM 1-glutamine, 250 μg/ml geneticin (G418) and 200 μg/ml hygromycin B as selection markers, and 100 units/ml penicillin G, 100 μg/ml streptomycin and 0.25 μg/ml amphotericin B.
(§5) Cells are seeded at a density of 5×10^4 cells per well in Biocoat® Poly-D-lysine-coated black-wall, clear-bottom 96-well plates (Becton-Dickinson) and allowed to attach overnight in an incubator at 37° C. Cells are then washed two times with HBSS-HEPES buffer (Hanks Balanced Salt Solution without bicarbonate and phenol red, 20 mM HEPES, pH 7.4) using a Denley Cellwash plate washer (Labsystems). After 45 minutes of dye-loading in the dark, using the calcium-sensitive dye Fluo-4 AM at a final concentration of 2 μM, plates are washed four times with HBSS-HEPES buffer to remove excess dye leaving 100 μl in each well. Plates are re-equilibrated to 37° C. for a few minutes.
(§6) Cells are excited with an Argon laser at 488 nm, and emission is measured through a 510-570 nm bandwidth emission filter (FLIPR™, Molecular Devices, Sunnyvale, Calif.). Drug solution is added in a 50 μl volume to each well to give the desired final concentration. The peak increase in fluorescence intensity is recorded for each well. On each plate, four wells each serve as negative (HBSS-HEPES buffer) and positive controls (standard agonists: BW245C (hDP); PGE2 (hEP1; hEP2/Gqs5; hEP3A/Gqi5; hEP4/Gqs5); PGF2α (hFP); carbacyclin ([…]); U-46619 (hTP), depending on receptor). The peak fluorescence change in each drug-containing well is then expressed relative to the controls.
(§7) Compounds are tested in a high-throughput (HTS) or concentration-response (CoRe) format. […]

hEP4/Gqs5 = target: T4, hEP4/Gqs5 (Homo sapiens, UniProt P35408); assay: FLIPR calcium signal, hEP4/Gqs5; type: cell-based; conditions: HEK-293(EBNA) cells, read-out: EP4 Ca2+ EC50
T4 construct: expressed in transfected cells
T4 sequence (P35408 whole entry): as the sequence (P35408 whole entry) above
Protocol: as §4, §5, §6
Compounds are tested in a high-throughput (HTS) or concentration-response (CoRe) format. In the HTS format, forty-four compounds per plate are examined in duplicates at a concentration of 10^−5 M. To generate concentration-response curves, four compounds per plate are tested in duplicates in a concentration range between 10^−5 and 10^−11 M. The duplicate values are averaged. In either, HTS or CoRe format each compound is tested on at least 3 separate plates using cells from different passages to give an n≧3.

hEP2/Gqs5 = target: T5, hEP2/Gqs5 (Homo sapiens, UniProt P43116); assay: FLIPR calcium signal, hEP2/Gqs5; type: cell-based; conditions: HEK-293(EBNA) cells, read-out: EP2 Ca2+ EC50
T5 construct: expressed in transfected cells
T5 sequence (P43116 whole entry): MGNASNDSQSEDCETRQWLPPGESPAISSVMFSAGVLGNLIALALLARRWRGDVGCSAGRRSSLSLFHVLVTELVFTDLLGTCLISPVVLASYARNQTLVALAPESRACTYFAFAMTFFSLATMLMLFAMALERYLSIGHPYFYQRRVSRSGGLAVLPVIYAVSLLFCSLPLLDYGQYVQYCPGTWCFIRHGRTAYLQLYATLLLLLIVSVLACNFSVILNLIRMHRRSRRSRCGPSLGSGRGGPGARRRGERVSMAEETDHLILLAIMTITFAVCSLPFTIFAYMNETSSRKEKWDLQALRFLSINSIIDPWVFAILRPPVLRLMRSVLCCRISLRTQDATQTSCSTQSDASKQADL
Protocol: as §4, §5, §6, §7

cynomolgus monkeys = assay: Intraocular pressure in cynomolgus monkeys; type: in vivo; conditions: 0.005% topical, single dose
Protocol: (§8) Intraocular pressure studies in dogs involved pneumatonometry performed in conscious, Beagle dogs of both sexes (10-15 kg). The animals remained conscious throughout the study and were gently restrained by hand. Drugs were administered topically to one eye as a 25 μL volume drop, the other eye received 25 μL vehicle (0.1% polysorbate 80:10 mM TRIS) as a control. Proparacaine (0.1%) was used for corneal anesthesia during tonometry. Intraocular pressure was determined just before drug administration and at 2, 4 and 6 hr thereafter on each day of the 5 day study. Drug was administered immediately after the first IOP reading.
An analogous procedure was carried out with cynomolgus monkeys with measurements at 2, 4, 6, and 24 hours after a single dose.

Beagle dogs [1] = assay: Intraocular pressure in dogs (pneumatonometry); type: in vivo; conditions: 0.005% topical 25 μL drop, 5 day study
Protocol: as §8

Beagle dogs [2] = assay: Ocular surface hyperemia in dogs; type: in vivo; conditions: 0.005% topical, score 0.5 trace, 1 mild, 2 moderate, 3 severe
Protocol: as §8
(§9) Ocular surface hyperemia was visually assessed and scored according to a system typically used clinically.
(§10) Ocular surface hyperemia was evaluated at the same time points as intraocular pressure measurement. It should be noted that untreated dog eyes frequently have a pink/red tone. Thus, values of trace or even mild are not necessarily out of the normal range. A similar procedure was used to determine rabbit hyperemia.

rabbit = assay: Ocular surface hyperemia in rabbits; type: in vivo; conditions: 0.005%, score 0.5 trace, 1 mild, 2 moderate, 3 severe
Protocol: as §9, §10

T1 sequence (P43116 whole entry): as above

Structure (SMILES) | Ki (EP2 receptor) [nM] | Ki (EP4 receptor) [nM] | EC50 (hEP3A/Gqi5) [nM] | EC50 (hEP4/Gqs5) [nM] | EC50 (hEP2/Gqs5) [nM] | Monkey Max ΔIOP (cynomolgus monkeys) [mm Hg] | Dog Max ΔIOP (Beagle dogs [1]) [mm Hg] | Dog Max Hyperemia (Beagle dogs [2]) | Rabbit Max Hyperemia (rabbit)
CC1(C)C(=O)[C@H](CC#CCCCC(=O)O)[C@@H](/C=C/C(O)CCc2ccc3ccccc3c2)[C@@H]1O (single isomer, unassigned) [drawing 25] | 36200 | 1240 | 1020 | 16.3 | – | – | – | – | –
CC1(C)C(=O)[C@H](C/C=C\CCCC(=O)O)[C@@H](/C=C/C(O)CCc2ccc3ccccc3c2)[C@@H]1O (single isomer, unassigned) [drawing 23] | > 10000 | 14 | 4020 | 0.17 | > 10000 | – | – | – | –
CC1(C)C(=O)[C@H](C/C=C\CCCC(=O)O)[C@@H](/C=C/C(O)CCc2ccc3ccccc3c2)[C@@H]1O (stereo partly drawn) | – | – | – | – | – | 8 | 2 | 1.3 | 0.1
CC1(C)C(=O)[C@H](C/C=C\CCCC(=O)O)[C@@H](/C=C/C(O)CCc2ccc3ccccc3c2)[C@@H]1O (single isomer, unassigned) [drawing 24] | 16900 | 111 | 1020 | 1.3 | > 10000 | – | – | – | –
CC1(C)C(=O)[C@H](CC#CCCCC(=O)O)[C@@H](/C=C/C(O)CCc2ccc3ccccc3c2)[C@@H]1O (single isomer, unassigned) [drawing 26] | – | 1860 | – | 8 | > 10000 | – | – | – | –

— US7439386B2, “Therapeutic substituted cyclopentanones” (Allergan, Inc., priority 2005, dated 2008)
